Experimental data taken from patent publication US20230183215A1, “Notch Inhibitors and Uses Thereof” (StemSynergy Therapeutics, Inc., priority 2020, published 2023).
pEC50, pIC50: −log10 of the molar value. Counter-ions that a name gives are not always drawn.

Experiments:
Notch1 = target: T1, Notch1 (Homo sapiens, UniProt P46531); assay: Notch1 Reporter Assay (CSL-responsive luciferase, doxycycline-induced Notch-ICD in 293A cells); type: cell-based; conditions: 25 ng/mL Dox, 24 h, luciferase normalized to cell viability
T1 construct: pLV[Tet]-Puro-TRE3G>Notch1-ICD; expressed in transfected cells; host or cells: 293A cells
T1 sequence (P46531 1754-2555 limits assumed): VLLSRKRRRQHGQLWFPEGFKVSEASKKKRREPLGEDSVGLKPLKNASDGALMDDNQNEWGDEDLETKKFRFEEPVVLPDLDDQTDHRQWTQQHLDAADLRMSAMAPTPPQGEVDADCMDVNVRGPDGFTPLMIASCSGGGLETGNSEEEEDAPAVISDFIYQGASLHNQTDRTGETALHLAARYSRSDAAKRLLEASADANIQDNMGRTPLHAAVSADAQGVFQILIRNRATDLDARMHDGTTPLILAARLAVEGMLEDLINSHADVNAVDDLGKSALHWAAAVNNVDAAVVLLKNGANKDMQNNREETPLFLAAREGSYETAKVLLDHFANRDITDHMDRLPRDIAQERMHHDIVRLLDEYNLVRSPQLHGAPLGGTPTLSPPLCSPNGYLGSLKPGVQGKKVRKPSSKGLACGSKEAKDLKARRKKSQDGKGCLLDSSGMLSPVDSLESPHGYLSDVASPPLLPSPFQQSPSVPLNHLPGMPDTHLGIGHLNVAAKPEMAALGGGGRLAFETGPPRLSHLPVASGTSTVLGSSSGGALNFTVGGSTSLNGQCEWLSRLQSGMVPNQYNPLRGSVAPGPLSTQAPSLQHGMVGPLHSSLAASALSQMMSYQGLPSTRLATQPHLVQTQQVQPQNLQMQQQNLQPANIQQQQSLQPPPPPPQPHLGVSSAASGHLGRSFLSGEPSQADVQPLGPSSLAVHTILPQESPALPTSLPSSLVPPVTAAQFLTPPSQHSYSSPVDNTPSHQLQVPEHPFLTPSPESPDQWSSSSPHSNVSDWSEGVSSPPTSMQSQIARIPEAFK
Protocol: 293A cells expressing 1) pCMV-Tet-On 3G, 2) pLV[Tet]-Puro-TRE3G>Notch1-ICD, 3) pLV[Tet]-Puro-TRE3G>Notch2-ICD, 4) pLV[Tet]-Puro-TRE3G>Notch3-ICD, and 5) pCSL-RElement-Luc were used. When Doxycycline is added, the Tet-ON gene activates expression of hNotch1ICD, which together with endogenous NTC components binds to CSL responsive elements (pCSL-RElement-Luc) and expresses luciferase. 1×10^4 cells are plated in 100 μL (96-well format). 24 h later, compounds (10 mM stock in DMSO) are diluted in DMSO to 200×, then added (5 ul into 1 mL) to cell culture media containing 50 ng/mL Dox. This is then added 1:1 to cells. Final DMSO=0.25%, Dox=25 ng/mL. After 24 h, media is discarded, and cells are lysed in passive lysis buffer (Promega). Cells are rocked at room temperature for 15 min and then lysate is divided for luciferase assay (Luciferase Assay System, Promega) and cell viability (CellTiter Glo 2.0, Promega). Raw luciferase is normalized to cell viability, and then scaled to DMSO wells. Results are analyzed and IC50's are determined in GraphPad by nonlinear regression curve fitting (4 parameter) of dose response curves.

[1] = test system: OE33 Esophageal Adenocarcinoma cell line; assay: OE33 Colony Formation Assay; type: cell-based; conditions: Homo sapiens, 200 cells/well, compound every 48 hours for 7 days, CellTiter-Glo
Protocol: OE33 Colony Formation Assay:
The OE33 Esophageal Adenocarcinoma cell line was cultured and plated into 96-well tissue culture plates under sparse conditions (200 cells/well). Test compounds were serially diluted in DMSO and then into culture media (final DMSO concentration=0.1%). Compound/media was then added to cells every 48 hours for a total of 7 days. Clonogenic growth was assessed using the CellTiter-Glo reagent, according to manufacturer (Promega) specifications. Percent inhibition was calculated as the percent of luminescence normalized to control (0.1% DMSO) wells. Nonlinear regression curve fitting was performed using GraphPad Prism software to determine EC50's.

Row | pEC50 [1] | Structure (SMILES) | pIC50 (Notch1)
1 | 5.62 | COc1ccccc1NC(=O)Cn1c(=O)n(C)c2c(-c3cc(F)c(OCc4nnc[nH]4)c(OC)c3)cc(C(F)(F)F)cc21 [SSTN-493, 2-(4-(4-((4H-1,2,4-triazol-3-yl)methoxy)-3-fluoro-5-methoxyphenyl)-3-methyl-2-oxo-6-(trifluoromethyl)-2,3-dihydro-1H-benzo[d]imidazol-1-yl)-N-(2-methoxyphenyl)acetamide hydrochloride] | 5.07
2 | 5.57 | COc1cc(-c2cc(C(F)(F)F)cc3c2n(C)c(=O)n3CC(=O)Nc2ccc(SC)cc2F)cc(F)c1OCc1nnc[nH]1 [SSTN-500, 2-(4-(4-((4H-1,2,4-triazol-3-yl)methoxy)-3-fluoro-5-methoxyphenyl)-3-methyl-2-oxo-6-(trifluoromethyl)-2,3-dihydro-1H-benzo[d]imidazol-1-yl)-N-(2-fluoro-4-(methylthio)phenyl)acetamide hydrochloride] | 5.13
3 | 5.08 | COc1cc(-c2cc(C(F)(F)F)cc3c2n(C)c(=O)n3CC(=O)Nc2ccc(S(C)(=O)=O)cc2)cc(F)c1OCc1nnc[nH]1 [SSTN-503, 2-(4-(4-((4H-1,2,4-triazol-3-yl)methoxy)-3-fluoro-5-methoxyphenyl)-3-methyl-2-oxo-6-(trifluoromethyl)-2,3-dihydro-1H-benzo[d]imidazol-1-yl)-N-(4-(methylsulfonyl)phenyl)acetamide hydrochloride] | 4.90
4 | 5.77 | COc1cc(-c2cc(C(F)(F)F)cc3c2n(C)c(=O)n3CC(=O)Nc2cccc(Cl)c2)cc(F)c1OCc1nnc[nH]1 [SSTN-490, 2-(4-(4-((4H-1,2,4-triazol-3-yl)methoxy)-3-fluoro-5-methoxyphenyl)-3-methyl-2-oxo-6-(trifluoromethyl)-2,3-dihydro-1H-benzo[d]imidazol-1-yl)-N-(3-chlorophenyl)acetamide hydrochloride] | 5.26
5 | 4.72 | COC(=O)c1cc(OCc2nnc[nH]2)c(OC)cc1-c1cc(C(F)(F)F)cc2c1n(C)c(=O)n2CC(=O)Nc1ccc(F)cc1 [SSTN-604, Methyl 5-((4H-1,2,4-triazol-3-yl)methoxy)-2-(1-(2-((4-fluorophenyl)amino)-2-oxoethyl)-3-methyl-2-oxo-6-(trifluoromethyl)-2,3-dihydro-1H-benzo[d]imidazol-4-yl)-4-methoxybenzoate hydrochloride salt] | 4.98
6 | 5.15 | COc1cc(-c2cc(C(F)(F)F)cc3c2n(C)c(=O)n3CC(=O)Nc2ccc(F)cc2F)cc(F)c1OCc1nnc[nH]1 [SSTN-494, 2-(4-(4-((4H-1,2,4-triazol-3-yl)methoxy)-3-fluoro-5-methoxyphenyl)-3-methyl-2-oxo-6-(trifluoromethyl)-2,3-dihydro-1H-benzo[d]imidazol-1-yl)-N-(2,4-difluorophenyl)acetamide hydrochloride] | 4.92
7 | 4.94 | COc1cc(-c2cc(C(F)(F)F)cc3c2n(C)c(=O)n3CC(=O)Nc2ccc(F)cc2)ccc1OCc1nnc[nH]1 [SSTN-598, 2-(4-(4-((4H-1,2,4-triazol-3-yl)methoxy)-3-methoxyphenyl)-3-methyl-2-oxo-6-(trifluoromethyl)-2,3-dihydro-1H-benzo[d]imidazol-1-yl)-N-(4-fluorophenyl)acetamide hydrochloride salt] | 5.19
8 | 5.42 | COc1cc(-c2cc(C(F)(F)F)cc3c2n(C)c(=O)n3CC(=O)Nc2ccc(F)cc2)c(F)cc1OCc1nnc[nH]1 [SSTN-603, 2-(4-(4-((4H-1,2,4-triazol-3-yl)methoxy)-2-fluoro-5-methoxyphenyl)-3-methyl-2-oxo-6-(trifluoromethyl)-2,3-dihydro-1H-benzo[d]imidazol-1-yl)-N-(4-fluorophenyl)acetamide] | 5.13
9 | 5.44 | COc1cc(-c2cc(C(F)(F)F)cc3c2n(C)c(=O)n3CC(=O)Nc2cccc(-c3ccccc3)c2)cc(F)c1OCc1nnc[nH]1 [SSTN-546, 2-(4-(4-((4H-1,2,4-triazol-3-yl)methoxy)-3-fluoro-5-methoxyphenyl)-3-methyl-2-oxo-6-(trifluoromethyl)-2,3-dihydro-1H-benzo[d]imidazol-1-yl)-N-([1,1′-biphenyl]-3-yl)acetamide] | 5.38
10 | 5.33 | COc1cc(-c2cc(C(F)(F)F)cc3c2n(C)c(=O)n3CC(=O)Nc2cccc(N3CCOCC3)c2)cc(F)c1OCc1nnc[nH]1 [SSTN-558, 2-(4-(4-((4H-1,2,4-triazol-3-yl)methoxy)-3-fluoro-5-methoxyphenyl)-3-methyl-2-oxo-6-(trifluoromethyl)-2,3-dihydro-1H-benzo[d]imidazol-1-yl)-N-(3-morpholinophenyl)acetamide] | 5.03
11 | 5.10 | COc1cc(-c2cc(C(F)(F)F)cc3c2n(C)c(=O)n3CC(=O)Nc2cncc(C)c2)cc(F)c1OCc1nnc[nH]1 [SSTN-502, 2-(4-(4-((4H-1,2,4-triazol-3-yl)methoxy)-3-fluoro-5-methoxyphenyl)-3-methyl-2-oxo-6-(trifluoromethyl)-2,3-dihydro-1H-benzo[d]imidazol-1-yl)-N-(5-methylpyridin-3-yl)acetamide hydrochloride] | 4.92
12 | 5.37 | COc1cc(-c2cc(C(F)(F)F)cc3c2n(C)c(=O)n3CC(=O)Nc2cccc(N3CCN(C)CC3)c2)cc(F)c1OCc1nnc[nH]1 [SSTN-559, 2-(4-(4-((4H-1,2,4-triazol-3-yl)methoxy)-3-fluoro-5-methoxyphenyl)-3-methyl-2-oxo-6-(trifluoromethyl)-2,3-dihydro-1H-benzo[d]imidazol-1-yl)-N-(3-(4-methylpiperazin-1-yl)phenyl)acetamide] | 4.70
13 | 5.54 | COc1cc(-c2cc(C(F)(F)F)cc3c2n(C)c(=O)n3CC(=O)Nc2ccc(OC(F)F)cc2)cc(F)c1OCc1nnc[nH]1 [SSTN-497, 2-(4-(4-((4H-1,2,4-triazol-3-yl)methoxy)-3-fluoro-5-methoxyphenyl)-3-methyl-2-oxo-6-(trifluoromethyl)-2,3-dihydro-1H-benzo[d]imidazol-1-yl)-N-(4-(difluoromethoxy)phenyl)acetamide hydrochloride] | 5.16
14 | 5.77 | COc1cc(-c2cc(C(F)(F)F)cc3c2n(C)c(=O)n3CC(=O)N(c2ccc(F)cc2)C(C)C)cc(F)c1OCc1nnc[nH]1 [SSTN-542, 2-(4-(4-((4H-1,2,4-triazol-3-yl)methoxy)-3-fluoro-5-methoxyphenyl)-3-methyl-2-oxo-6-(trifluoromethyl)-2,3-dihydro-1H-benzo[d]imidazol-1-yl)-N-(4-fluorophenyl)-N-isopropylacetamide] | 5.42
15 | 5.34 | COc1cc(-c2cc(C(F)(F)F)cc3c2n(C)c(=O)n3CC(=O)Nc2ccccc2Cl)cc(F)c1OCc1nnc[nH]1 [SSTN-491, 2-(4-(4-((4H-1,2,4-triazol-3-yl)methoxy)-3-fluoro-5-methoxyphenyl)-3-methyl-2-oxo-6-(trifluoromethyl)-2,3-dihydro-1H-benzo[d]imidazol-1-yl)-N-(2-chlorophenyl)acetamide hydrochloride] | 4.95
16 | 5.43 | COc1cc(-c2cc(C(F)(F)F)cc3c2n(C)c(=O)n3CC(=O)Nc2cccc(F)c2)cc(F)c1OCc1nnc[nH]1 [SSTN-496, 2-(4-(4-((4H-1,2,4-triazol-3-yl)methoxy)-3-fluoro-5-methoxyphenyl)-3-methyl-2-oxo-6-(trifluoromethyl)-2,3-dihydro-1H-benzo[d]imidazol-1-yl)-N-(3-fluorophenyl)acetamide hydrochloride] | 5.22
